Laboratory results: PubChem BioAssay AID2060909 (Molecular Pharmacology Branch, DTP, NCI, 2025)
pIC50: −log10 of the molar value.

System: 362531-283-R-J2-PDC complex spheroid viability
Assay: Anticancer human tumor 362531-283-R-J2-PDC patient-derived colon adenocarcinoma cell line growth inhibition [RAS]
Details: for pIC50: curve of first compound; for viability, T/C: stronger effect = lower value
In short: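 Multi-cell-type spheroids: tumor cells plus HUVEC endothelial cells and mesenchymal stem cells. RAS-pathway inhibitors were combined with targeted agents, each dosed in half-log steps down from clinical Cmax, or from 10 microM when Cmax was unknown.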

[1] = second compound 0.0316 µM, first compound 0.0316 µM
[2] = second compound 0.0316 µM, first compound 0.1 µM
[3] = second compound 0.0316 µM, first compound 0.316 µM
[4] = second compound 0.0316 µM, first compound 1 µM
[5] = second compound 0.1 µM, first compound 0.0316 µM
[6] = second compound 0.1 µM, first compound 0.1 µM
[7] = second compound 0.1 µM, first compound 0.316 µM
[8] = second compound 0.1 µM, first compound 1 µM
[9] = second compound 0.316 µM, first compound 0.0316 µM
[10] = second compound 0.316 µM, first compound 0.1 µM
[11] = second compound 0.316 µM, first compound 0.316 µM
[12] = second compound 0.316 µM, first compound 1 µM
[13] = second compound 1 µM, first compound 0.0316 µM
[14] = second compound 1 µM, first compound 0.1 µM
[15] = second compound 1 µM, first compound 0.316 µM
[16] = second compound 1 µM, first compound 1 µM
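Further: spheroids exposed to the agents for 7 days before readout.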
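Wherever viability, T/C is given: luminescence viability as percent of DMSO vehicle control wells.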

SMILES: C=CC(=O)Nc1cc(Nc2nccc(-c3cn(C)c4ccccc34)n2)c(OC)cc1N(C)CCN(C)C + CCn1c(-c2cccnc2C(C)OC)c2c3cc(ccc31)N1CCOC(CC(NC(=O)C(C(C)C)N(C)C(=O)C3(F)CCN(C(=O)C#CC(C)(C)N(C)C)CC3)C(=O)N3CCCC(N3)C(=O)OCC(C)(C)C2)C1
- pIC50 (second compound 0.000949 µM): < 6.00
- pIC50 (second compound 0.003 µM): < 6.00
- pIC50 (second compound 0.00949 µM): < 6.00
- pIC50 (second compound 0.03 µM): < 6.00
- pIC50 (second compound 0.0949 µM): < 6.00
- pIC50 (second compound 0.3 µM): < 6.00
- viability, T/C (second compound 0.000949 µM, first compound 0.00316 µM): 92.4%
- viability, T/C (second compound 0.000949 µM, first compound 0.01 µM): 93.8%
- viability, T/C (second compound 0.000949 µM, first compound 0.0316 µM): 104%
- viability, T/C (second compound 0.000949 µM, first compound 0.1 µM): 98.1%
- viability, T/C (second compound 0.000949 µM, first compound 0.316 µM): 98%
- viability, T/C (second compound 0.000949 µM, first compound 1 µM): 75.1%
- viability, T/C (second compound 0.003 µM, first compound 0.00316 µM): 108%
- viability, T/C (second compound 0.003 µM, first compound 0.01 µM): 107%
- viability, T/C (second compound 0.003 µM, first compound 0.0316 µM): 103%
- viability, T/C (second compound 0.003 µM, first compound 0.1 µM): 98.6%
- viability, T/C (second compound 0.003 µM, first compound 0.316 µM): 95.4%
- viability, T/C (second compound 0.003 µM, first compound 1 µM): 68.8%
- viability, T/C (second compound 0.00949 µM, first compound 0.00316 µM): 112%
- viability, T/C (second compound 0.00949 µM, first compound 0.01 µM): 103%
- viability, T/C (second compound 0.00949 µM, first compound 0.0316 µM): 101%
- viability, T/C (second compound 0.00949 µM, first compound 0.1 µM): 104%
- viability, T/C (second compound 0.00949 µM, first compound 0.316 µM): 101%
- viability, T/C (second compound 0.00949 µM, first compound 1 µM): 82.2%
- viability, T/C (second compound 0.03 µM, first compound 0.00316 µM): 98.6%
- viability, T/C (second compound 0.03 µM, first compound 0.01 µM): 99.9%
- viability, T/C (second compound 0.03 µM, first compound 0.0316 µM): 100%
- viability, T/C (second compound 0.03 µM, first compound 0.1 µM): 101%
- viability, T/C (second compound 0.03 µM, first compound 0.316 µM): 101%
- viability, T/C (second compound 0.03 µM, first compound 1 µM): 82.7%
- viability, T/C (second compound 0.0949 µM, first compound 0.00316 µM): 98.4%
- viability, T/C (second compound 0.0949 µM, first compound 0.01 µM): 97.1%
- viability, T/C (second compound 0.0949 µM, first compound 0.0316 µM): 99%
- viability, T/C (second compound 0.0949 µM, first compound 0.1 µM): 106%
- viability, T/C (second compound 0.0949 µM, first compound 0.316 µM): 106%
- viability, T/C (second compound 0.0949 µM, first compound 1 µM): 79.2%
- viability, T/C (second compound 0.3 µM, first compound 0.00316 µM): 91.3%
- viability, T/C (second compound 0.3 µM, first compound 0.01 µM): 90.1%
- viability, T/C (second compound 0.3 µM, first compound 0.0316 µM): 99.6%
- viability, T/C (second compound 0.3 µM, first compound 0.1 µM): 96.6%
- viability, T/C (second compound 0.3 µM, first compound 0.316 µM): 104%
- viability, T/C (second compound 0.3 µM, first compound 1 µM): 83.6%

SMILES: C=CC(=O)Nc1cc(Nc2nccc(-c3cn(C)c4ccccc34)n2)c(OC)cc1N(C)CCN(C)C + C#Cc1c(F)ccc2cc(O)cc(-c3ncc4c(N5CC6CCC(C5)N6)nc(OCC56CCCN5CC(F)C6)nc4c3F)c12
- pIC50 (second compound 0.0316 µM): 6.28
- pIC50 (second compound 0.1 µM): 6.33
- pIC50 (second compound 0.316 µM): 6.80
- pIC50 (second compound 1 µM): 6.96
- pIC50 (second compound 3.16 µM): 7.31
- pIC50 (second compound 10 µM): 8.26
- viability, T/C (second compound 0.0316 µM, first compound 0.00316 µM): 96.8%
- viability, T/C (second compound 0.0316 µM, first compound 0.01 µM): 96.6%
- viability, T/C [1]: 97.7%
- viability, T/C [2]: 89.7%
- viability, T/C [3]: 78.1%
- viability, T/C [4]: 15.8%
- viability, T/C (second compound 0.1 µM, first compound 0.00316 µM): 93%
- viability, T/C (second compound 0.1 µM, first compound 0.01 µM): 96.6%
- viability, T/C [5]: 91.6%
- viability, T/C [6]: 84.8%
- viability, T/C [7]: 71.3%
- viability, T/C [8]: 12.4%
- viability, T/C (second compound 0.316 µM, first compound 0.00316 µM): 95.9%
- viability, T/C (second compound 0.316 µM, first compound 0.01 µM): 94.4%
- viability, T/C [9]: 84.1%
- viability, T/C [10]: 69.8%
- viability, T/C [11]: 20.8%
- viability, T/C [12]: 14.4%
- viability, T/C (second compound 1 µM, first compound 0.00316 µM): 80.9%
- viability, T/C (second compound 1 µM, first compound 0.01 µM): 78.3%
- viability, T/C [13]: 73%
- viability, T/C [14]: 53.7%
- viability, T/C [15]: 19.9%
- viability, T/C [16]: 14.4%
- viability, T/C (second compound 3.16 µM, first compound 0.00316 µM): 63.5%
- viability, T/C (second compound 3.16 µM, first compound 0.01 µM): 66.4%
- viability, T/C (second compound 3.16 µM, first compound 0.0316 µM): 55.7%
- viability, T/C (second compound 3.16 µM, first compound 0.1 µM): 38.7%
- viability, T/C (second compound 3.16 µM, first compound 0.316 µM): 16.2%
- viability, T/C (second compound 3.16 µM, first compound 1 µM): 13.8%
- viability, T/C (second compound 10 µM, first compound 0.00316 µM): 57.3%
- viability, T/C (second compound 10 µM, first compound 0.01 µM): 41.4%
- viability, T/C (second compound 10 µM, first compound 0.0316 µM): 32.5%
- viability, T/C (second compound 10 µM, first compound 0.1 µM): 22.5%
- viability, T/C (second compound 10 µM, first compound 0.316 µM): 17.1%
- viability, T/C (second compound 10 µM, first compound 1 µM): 13.4%

SMILES: NC1c2ccccc2OC12CCN(c1cnc3c(N4CCCc5ncccc54)n[nH]c3n1)CC2 (stereo not drawn) + C=CC(=O)N1CCN(c2nc(OCC3CCCN3C)nc3c(F)c(-c4nc(N)cc(C)c4C(F)(F)F)c(Cl)cc23)C(C)C1
- pIC50 (second compound 0.00316 µM): 5.42
- pIC50 (second compound 0.01 µM): 5.23
- pIC50 (second compound 0.0316 µM): 5.33
- pIC50 (second compound 0.1 µM): 5.21
- pIC50 (second compound 0.316 µM): 5.12
- pIC50 (second compound 1 µM): 5.10
- viability, T/C (second compound 0.00316 µM, first compound 0.0316 µM): 102%
- viability, T/C (second compound 0.00316 µM, first compound 0.1 µM): 76.8%
- viability, T/C (second compound 0.00316 µM, first compound 0.316 µM): 83.8%
- viability, T/C (second compound 0.00316 µM, first compound 1 µM): 60%
- viability, T/C (second compound 0.00316 µM, first compound 3.16 µM): 56.2%
- viability, T/C (second compound 0.00316 µM, first compound 10 µM): 37.9%
- viability, T/C (second compound 0.01 µM, first compound 0.0316 µM): 92.1%
- viability, T/C (second compound 0.01 µM, first compound 0.1 µM): 82.2%
- viability, T/C (second compound 0.01 µM, first compound 0.316 µM): 75.1%
- viability, T/C (second compound 0.01 µM, first compound 1 µM): 72.5%
- viability, T/C (second compound 0.01 µM, first compound 3.16 µM): 57.8%
- viability, T/C (second compound 0.01 µM, first compound 10 µM): 42.3%
- viability, T/C [1]: 89.4%
- viability, T/C [2]: 86.7%
- viability, T/C [3]: 73.3%
- viability, T/C [4]: 66.6%
- viability, T/C (second compound 0.0316 µM, first compound 3.16 µM): 58.3%
- viability, T/C (second compound 0.0316 µM, first compound 10 µM): 38.4%
- viability, T/C [5]: 93%
- viability, T/C [6]: 83.6%
- viability, T/C [7]: 79.2%
- viability, T/C [8]: 64%
- viability, T/C (second compound 0.1 µM, first compound 3.16 µM): 61.9%
- viability, T/C (second compound 0.1 µM, first compound 10 µM): 43%
- viability, T/C [9]: 94.4%
- viability, T/C [10]: 91.6%
- viability, T/C [11]: 78.4%
- viability, T/C [12]: 68.9%
- viability, T/C (second compound 0.316 µM, first compound 3.16 µM): 65.7%
- viability, T/C (second compound 0.316 µM, first compound 10 µM): 44.5%
- viability, T/C [13]: 91%
- viability, T/C [14]: 79.2%
- viability, T/C [15]: 74.7%
- viability, T/C [16]: 70%
- viability, T/C (second compound 1 µM, first compound 3.16 µM): 61.9%
- viability, T/C (second compound 1 µM, first compound 10 µM): 45.7%

SMILES: CCn1c(-c2cc(N3CCN(C)CC3)cnc2C(C)OC)c2c3cc(ccc31)-c1csc(n1)CC(NC(=O)C1CC1C)C(=O)N1CCCC(N1)C(=O)OCC(C)(C)C2 (stereo not drawn)
- viability, T/C (compound 0.000949 µM): 99% [middle of 8 runs]
- viability, T/C (compound 0.003 µM): 101% [middle of 8 runs]
- viability, T/C (compound 0.00949 µM): 100% [middle of 8 runs]
- viability, T/C (compound 0.03 µM): 99.5% [middle of 8 runs]
- viability, T/C (compound 0.0949 µM): 82.8% [middle of 7 runs]
- viability, T/C (compound 0.3 µM): 38.5% [middle of 8 runs]
- IC50 (compound alone, run of 07/09/2024): 223 nM [middle of 8 runs]
